Data from patent US5198533A, “LHRH antagonists” (The Administrators of the Tulane Educational Fund, priority 1988, dated 1993).
Where a SMILES comes first, the peptide text is derived from it. [ ]: non-standard residue; d: D form. dPhe(4-Cl) = N[C@H](Cc1ccc(Cl)cc1)C(=O)O; d2Nal = N[C@H](Cc1ccc2ccccc2c1)C(=O)O; dCit = NC(=O)NCCC[C@@H](N)C(=O)O; d3Pal = N[C@H](Cc1cccnc1)C(=O)O

Test system: edema of the face and extremities
Assay: edematogenic test of Schmidt, et al.
Type: in vivo, rat
Details: 1.5 mg/kg s.c. once a day on two consecutive days
Protocol: In the edematogenic test of Schmidt, et al. (Contraception, 29, 283-289, 1984), however, a marked difference can be found between the control peptides and the peptides of the present invention. The control […] 1.50 mg/kg. No such reaction can be observed with the peptides of the present invention when given at a subcutaneous dose of 1.5 mg/kg.
In the tests as run, the rats were assigned to three groups of […] per group per compound tested. Comparison was made with a known prior art compound designated ORG 30276 namely (N-Ac-D-p-Cl-Phe^1,2,D-Trp^3,D-Arg^6,D-Ala^10)-LHRH. The groups were injected subcuntaneously once a day on two consecutive days with the LHRH antagonists at a dose level of 1.5 mg/kg. One control group was injected with diluent only. The rats were observed during five hours each day. Reactions of the rats were classified as follows: NR no apparent reaction, PR partial responders: edema of the nasal and paranasal area, FR full responders: facial edema with edematous extremities.

## CC(=O)N[C@H](Cc1ccc2ccccc2c1)C(=O)N[C@H](Cc1ccc(Cl)cc1)C(=O)N[C@H](Cc1cccnc1)C(=O)N[C@@H](CO)C(=O)N[C@@H](Cc1ccc(O)cc1)C(=O)N[C@H](CCCNC(N)=O)C(=O)N[C@@H](CC(C)C)C(=O)N[C@@H](CCCNC(=N)N)C(=O)N1CCC[C@H]1C(=O)N[C@H](C)C(N)=O [EX XXVI, Ac-D-Nal-D-Phe(4-Cl)-D-Pal(3)-Ser-Tyr-D-Cit-Leu-Arg-Pro-D-AlaNH2] (Ac-[d2Nal][dPhe(4-Cl)][d3Pal]SY[dCit]LRP[dA]-NH2)
* = very light edema of the face
  2nd Day PR (number of rats, partial responders: edema of the nasal and paranasal area): 0
Observed five hours each day
  1st Day FR (number of rats, full responders: facial edema with edematous extremities): 0
  1st Day NR (number of rats, no apparent reaction): 8
  1st Day PR (number of rats, partial responders: edema of the nasal and paranasal area): 0
  2nd Day FR (number of rats, full responders: facial edema with edematous extremities): 0
  2nd Day NR (number of rats, no apparent reaction): 8
